Measurements taken from patent US20040137574A1, “Novel polypeptide” (Pfizer Inc, priority 2000, published 2004).

Tests used:
PFI-019 = target: T1, PFI-019 (Homo sapiens, UniProt Q96P68); assay: FLIPR cell-based assay for agonist activation of PFI-019 (calcium fluorescence, Fluo3); conditions: PFI-019-transfected HEK 293 cells expressing mouse Gα15, fluorescence intensity versus time
T1 construct: amplify the PFI-019 coding region from human genomic DNA; N-terminal polyhistidine/Xpress leader of vector pcDNA4/HisMax-TOPO (inferred from the vector name); expressed in transfected cells; host or cells: HEK293 cells expressing the mouse Galpha15 gene, transiently transfected
Procedure: Fluorescence Imaging Plate Reader (FLIPR®) technology was employed as a means to detect activation of PFI-019 by agonists in a cell-based assay.
(§1) 5×10^6 Human Embryonic Kidney (HEK) 293 cells expressing the mouse Gα15 gene (from here on called '293 cells'), were transiently transfected with 7.5 μg of PFI-019 (contained within the pcDNA4HIS-max-TOPO (Invitrogen) plasmid) vector, or vector alone, using Lipofectamine Plus® reagent (Gibco BRL) as per the manufacturer's protocol. The plasmid pcDNA4HIS-max-TOPO was used as it contains elements that up-regulate the level of gene transcription over standard pcDNA3.1 vectors. 24 hrs post-transfection, the cells were detached from the flask using Trypsin/EDTA solution (LTI) and seeded into a black sided, Poly-D-lysine-treated, 96-well plate (Becton Dickinson) at 5×10^4 cells/well density. The plates were left overnight to allow the cells to adhere to the bottom of the wells. […] The FLIPR® processing involved reading the fluorescence for all samples for 2 minutes; during this time the fluorescence baseline was determined for the first 10 seconds. The desired amount of compound was then automatically transferred to the wells, and the fluorescence was continuously monitored for the remainder of the time. […]

[1] = test system: Vector-only transfected 293 cells; assay: FLIPR cell-based assay, vector-only (mock) transfected control cells; parameters: species or system human; conditions: vector-only transfected HEK 293 cells expressing mouse Gα15
Procedure: as §1

Row | Compound | stimulation of PFI-019 (fluorescence response) (PFI-019) | response of vector-only transfected 293 cells (fluorescence) [1]
1 | Nc1nc(Cl)nc2c1ncn2[C@@H]1O[C@H](COP(=O)([O-])OP(=O)([O-])OP(=O)([O-])[O-])[C@@H](O)[C@H]1O.[Na+].[Na+].[Na+].[Na+] [2-chloro-ATP, 2-chloroadenosine triphosphate tetrasodium] | stimulation of PFI-019 | no measurable response
2 | O=c1ccn([C@@H]2O[C@H](COP(=O)(O)OP(=O)(O)OP(=O)(O)O)[C@@H](O)[C@H]2O)c(=O)[nH]1 [UTP, Uridine triphosphate] | stimulation of PFI-019 | no measurable response
